Measured values as given in patent publication US9359297B2, “Spirolactam derivatives and uses of same” (H. Lundbeck A/S, priority 2009, dated 2016).

Target: T1, human metabotropic glutamate receptor 5 (hmGluR5) (Homo sapiens, UniProt P41594)
T1 construct: expressed in transfected cells
Test: Calcium mobilization (FLIPR) assay for negative allosteric modulation, EC80 glutamate, hmGluR5 in HEK 293
Assay type: cell-based
Details: HEK293; hmGluR5, inhibition of EC80 glutamate response; read-out: FLIPR maximum inhibition
Method: The cDNA for rat metabotropic glutamate receptor 5 (rmGluR5) and the cDNA for human metabotropic glutamate receptor 5 (hmGluR5) were generous gifts from S. Nakanishi (Kyoto University, Kyoto, Japan). The rmGluR5 or hmGluR5 was stably expressed in a HEK 293 cell line and grown in Dulbecco's Modified Eagle Medium (DMEM) (Invitrogen, Carlsbad, Calif.) with supplements (10% bovine calf serum, 4 mM glutamine, 100 units/mL penicillin, 100 μg/mL streptomycin and 0.75 mM G1418) at 37° C., 5% CO2. Twenty-four hours prior to assay, cells were seeded into 384-well black wall microtiter plates coated with poly-D-lysine. Just prior to assay, media was aspirated and cells dye-loaded (25 μL/well) with 3 μM Fluo-4/0.01% pluronic acid in assay buffer (Hank's Balanced Saline Solution (HBSS)): 150 mM NaCl, 5 mM KCl, 1 mM CaCl2, 1 mM MgCl2, plus 20 mM N-2-Hydroxyethylpiperazine-N′-2-ethanesulfonic acid (HEPES), pH 7.4, 0.1% bovine serum albumin (BSA) and 2.5 mM probenicid) for 1 hour in 5% CO2 at 37° C. After excess dye was discarded, cells were washed in assay buffer and layered with a final volume equal to 30 μL/well. Basal fluorescence is monitored in a fluorometric imaging plate reader (FLIPR) (Molecular Devices, Sunnyvale, Calif.) with an excitation wavelength of 488 nm and an emission range of 500 to 560 nm. Laser excitation energy was adjusted so that basal fluorescence readings were approximately 10,000 relative fluorescent units. Cells were stimulated with an EC20 or an EC80 concentration of glutamate in the presence of a compound to be tested, both diluted in assay buffer, and relative fluorescent units were measured at defined intervals (exposure=0.6 sec) over a 3 min period at room temperature. Basal readings derived from negative controls were subtracted from all samples. Maximum change in fluorescence was calculated for each well. Concentration-response curves derived from the maximum change in fluorescence were analyzed by nonlinear regression (Hill equation). A negative modulator can be identified from these concentration-response curves if a compound produces a concentration dependent inhibition of the EC80 glutamate response.

T1 sequence (P41594 21-1212): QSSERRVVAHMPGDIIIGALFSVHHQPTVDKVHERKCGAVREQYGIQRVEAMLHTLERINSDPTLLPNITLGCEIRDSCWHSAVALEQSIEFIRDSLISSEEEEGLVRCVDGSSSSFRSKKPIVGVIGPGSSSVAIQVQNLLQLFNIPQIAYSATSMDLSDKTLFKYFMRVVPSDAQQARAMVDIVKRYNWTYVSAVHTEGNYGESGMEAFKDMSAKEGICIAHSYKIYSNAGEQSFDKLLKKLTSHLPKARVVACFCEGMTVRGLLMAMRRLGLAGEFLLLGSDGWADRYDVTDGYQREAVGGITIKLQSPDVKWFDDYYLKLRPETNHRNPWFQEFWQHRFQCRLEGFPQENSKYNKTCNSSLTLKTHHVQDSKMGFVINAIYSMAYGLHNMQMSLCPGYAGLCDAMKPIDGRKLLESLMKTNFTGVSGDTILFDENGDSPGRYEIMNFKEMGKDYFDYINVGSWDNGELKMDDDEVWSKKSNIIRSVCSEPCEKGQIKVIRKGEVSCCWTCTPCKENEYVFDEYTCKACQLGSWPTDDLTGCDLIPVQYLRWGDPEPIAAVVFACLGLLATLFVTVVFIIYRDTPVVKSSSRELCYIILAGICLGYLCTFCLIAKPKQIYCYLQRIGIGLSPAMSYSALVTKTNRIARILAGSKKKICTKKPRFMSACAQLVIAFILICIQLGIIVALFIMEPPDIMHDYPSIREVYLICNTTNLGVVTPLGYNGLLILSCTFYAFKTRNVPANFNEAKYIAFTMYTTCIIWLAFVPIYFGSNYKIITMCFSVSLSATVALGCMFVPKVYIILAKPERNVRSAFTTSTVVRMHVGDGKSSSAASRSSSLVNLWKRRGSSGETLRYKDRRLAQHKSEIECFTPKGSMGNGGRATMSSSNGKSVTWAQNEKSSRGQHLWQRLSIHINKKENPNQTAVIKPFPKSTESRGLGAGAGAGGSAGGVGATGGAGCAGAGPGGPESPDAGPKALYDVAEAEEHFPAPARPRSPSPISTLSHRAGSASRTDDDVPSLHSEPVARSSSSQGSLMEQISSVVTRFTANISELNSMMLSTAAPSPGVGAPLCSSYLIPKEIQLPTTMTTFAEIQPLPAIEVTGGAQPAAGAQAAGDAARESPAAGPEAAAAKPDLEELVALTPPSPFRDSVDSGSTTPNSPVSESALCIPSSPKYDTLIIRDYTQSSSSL

Compound	Emax
O=C(N[C@H]1CCC[C@]2(CCN(c3cccc(F)c3)C2=O)C1)c1ccncc1 (relative stereo) [Example 77, cis-N-[2-(3-Fluoro-phenyl)-1-oxo-2-aza-spiro[4.5]dec-7-yl]-isonicotinamide]	73 to 95%
O=C(N[C@H]1CCC[C@]2(CCN(c3cc(F)cc(F)c3)C2=O)C1)c1ccncn1 (relative stereo) [Example 79, cis-Pyrimidine-4-carboxylic acid [2-(3,5-difluoro-phenyl)-1-oxo-2-azaspiro[4.5]dec-7-yl]-amide]	73 to 95%
Cc1cccc(C(=O)N[C@H]2CCC[C@]3(CCN(Cc4ccccc4)C3=O)C2)n1 (relative stereo) [Example 83, cis-6-methyl-pyridine-2-carboxylic acid (2-benzyl-1-oxo-2-aza-spiro[4.5]dec-7-yl)-amide]	73 to 95%
O=C(N[C@H]1CCC[C@]2(CCN(c3cc(-c4ccc(F)cc4)ncn3)C2=O)C1)c1cccc(F)c1 (relative stereo) [Example 88, cis-3-Fluoro-N-{2-[6-(4-fluoro-phenyl)-pyrimidin-4-yl]-1-oxo-2-aza-spiro[4.5]dec-7-yl}-benzamide]	73 to 95%
O=C(N[C@H]1CCC[C@]2(CCN(c3cccc(F)c3)C2=O)C1)c1cccc(CO)n1 (relative stereo) [Example 93, cis-6-Hydroxymethyl-pyridine-2-carboxylic acid [2-(3-fluoro-phenyl)-1-oxo-2-aza-spiro[4.5]dec-7-yl]-amide]	73 to 95%
O=C(N[C@H]1CCC[C@]2(CCN(c3cccc(F)c3)C2=O)C1)c1cccc(C(F)(F)F)n1 (relative stereo) [Example 94, cis-6-Trifluoromethyl-pyridine-2-carboxylic acid [2-(3-fluoro-phenyl)-1-oxo-2-aza-spiro[4.5]dec-7-yl]-amide]	73 to 95%
Cc1nccc(C(=O)N[C@@H]2CC(F)(F)C[C@]3(CCN(c4cc(F)cc(F)c4)C3=O)C2)n1 (relative stereo) [Example 105, trans-2-Methyl-pyrimidine-4-carboxylic acid [2-(3,5-difluoro-phenyl)-9,9-difluoro-1-oxo-2-aza-spiro[4.5]dec-7-yl]-amide]	47 to 93%
O=C(N[C@@H]1CC(F)(F)C[C@@]2(CCN(c3ccc(F)cc3)C2=O)C1)c1ccccn1 (relative stereo) [Example 106, cis-Pyridine-2-carboxylic acid [9,9-difluoro-2-(4-fluoro-phenyl)-1-oxo-2-aza-spiro[4.5]dec-7-yl]-amide]	47 to 93%
Cc1cccc(C(=O)N[C@@H]2CC(F)(F)C[C@@]3(CCN(c4cccc(F)c4)C3=O)C2)n1 (relative stereo) [Example 107, cis-6-Methyl-pyridine-2-carboxylic acid [9,9-difluoro-2-(3-fluoro-phenyl)-1-oxo-2-aza-spiro[4.5]dec-7-yl]-amide]	47 to 93%
Cc1cccc(C(=O)N[C@@H]2CC(F)(F)C[C@@]3(CCN(c4ccnc(C)n4)C3=O)C2)n1 (relative stereo) [Example 108, cis-6-Methyl-pyridine-2-carboxylic acid [9,9-difluoro-2-(2-methyl-pyrimidin-4-yl)-1-oxo-2-aza-spiro[4.5]dec-7-yl]-amide]	47 to 93%
O=C(N[C@@H]1CC(F)(F)C[C@@]2(CCN(c3ccc(F)cn3)C2=O)C1)c1ccccn1 (relative stereo) [Example 111, cis-Pyridine-2-carboxylic acid [9,9-difluoro-2-(5-fluoro-pyridin-2-yl)-1-oxo-2-aza-spiro[4.5]dec-7-yl]-amide]	47 to 93%
Cc1nccc(N2CC[C@]3(C[C@H](NC(=O)c4ccccn4)CC(F)(F)C3)C2=O)n1 (relative stereo) [Example 112, cis-Pyridine-2-carboxylic acid [9,9-difluoro-2-(2-methyl-pyrimidin-4-yl)-1-oxo-2-aza-spiro[4.5]dec-7-yl]-amide]	47 to 93%
Cc1nccc(C(=O)N[C@@H]2CC(=O)C[C@@]3(CCN(c4cc(F)cc(F)c4)C3=O)C2)n1 (relative stereo) [Example 115, cis-2-Methyl-pyrimidine-4-carboxylic acid [2-(3,5-difluoro-phenyl)-1,9-dioxo-2-aza-spiro[4.5]dec-7-yl]-amide]	47 to 93%
Cc1nccc(C(=O)N[C@@H]2C[C@H](O)C[C@@]3(CCN(c4cc(F)cc(F)c4)C3=O)C2)n1 (relative stereo) [Example 116, cis-2-Methyl-pyrimidine-4-carboxylic acid [2-(3,5-difluorphenyl)-9-hydroxy-1-oxo-2-aza-spiro[4.5]dec-7-yl]-amide]	47 to 93%
Cc1nccc(C(=O)N[C@@H]2C[C@@H](O)C[C@@]3(CCN(c4cc(F)cc(F)c4)C3=O)C2)n1 (relative stereo) [Example 117, trans-2-Methyl-pyrimidine-4-carboxylic acid [2-(3,5-difluorphenyl)-9-hydroxy-1-oxo-2-aza-spiro[4.5]dec-7-yl]-amide]	47 to 93%

Now from value to compound:

Emax	Compound
73 to 95%	Cc1nccc(N2CC[C@]3(CCC[C@H](NC(=O)c4cc(F)cc(F)c4)C3)C2=O)n1 (relative stereo) [Example 85, cis-3,5-Difluoro-N-[2-(2-methyl-pyrimidin-4-yl)-1-oxo-2-aza-spiro [4.5]dec-7-yl]-benzamide]
73 to 95%	Cc1cncc(C(=O)N[C@H]2CCC[C@]3(CCN(c4cc(-c5ccc(F)cc5)ncn4)C3=O)C2)n1 (relative stereo) [Example 86, cis-6-Methyl-pyrazine-2-carboxylic acid {2-[6-(4-fluoro-phenyl)-pyrimidin-4-yl]-1-oxo-2-aza-spiro [4.5]dec-7-yl}-amide]
73 to 95%	Cc1cccc(C(=O)N[C@H]2CCC[C@]3(CCN(c4cc(-c5ccc(F)cc5)ncn4)C3=O)C2)n1 (relative stereo) [Example 87, cis-6-Methyl-pyridine-2-carboxylic acid {2-[6-(4-fluoro-phenyl)-pyrimidin-4-yl]-1-oxo-2-aza-spiro [4.5]dec-7-yl}-amide]
73 to 95%	Cc1nccc(N2CC[C@]3(CCC[C@H](NC(=O)c4ccc(F)cc4)C3)C2=O)n1 (relative stereo) [Example 89, cis-4-Fluoro-N-[2-(2-methyl-pyrimidin-4-yl)-1-oxo-2-aza-spiro [4.5]dec-7-yl]-benzamide]
73 to 95%	Cc1nccc(N2CC[C@]3(CCC[C@H](NC(=O)c4ccc(F)c(F)c4)C3)C2=O)n1 (relative stereo) [Example 90, cis-3,4-Difluoro-N-[2-(2-methyl-pyrimidin-4-yl)-1-oxo-2-aza-spiro [4.5]dec-7-yl]-benzamide]
73 to 95%	Cc1nccc(N2CC[C@]3(CCC[C@H](NC(=O)c4ccccc4F)C3)C2=O)n1 (relative stereo) [Example 91, cis-2-Fluoro-N-[2-(2-methyl-pyrimidin-4-yl)-1-oxo-2-aza-spiro [4.5]dec-7-yl]-benzamide]
73 to 95%	Cc1cc(C(=O)N[C@H]2CCC[C@]3(CCN(c4ccnc(C)n4)C3=O)C2)ccn1 (relative stereo) [Example 92, cis-2-Methyl-N-[2-(2-methyl-pyrimidin-4-yl)-1-oxo-2-aza-spiro [4.5]dec-7-yl]-isonicotinamide]
73 to 95%	Cc1nccc(N2CC[C@]3(CCC[C@H](NC(=O)c4cccc(C(F)(F)F)n4)C3)C2=O)n1 (relative stereo) [Example 96, cis-6-Trifluoromethyl-pyridine-2-carboxylic acid [2-(2-methyl-pyrimidin-4-yl)-1-oxo-2-aza-spiro [4.5]dec-7-yl]-amide]
